From ChEMBL document CHEMBL5512617, “Tackling Influenza A virus by M2 ion channel blockers: Latest progress and limitations” (Eur J Med Chem, 2024)
Values after ≈ are worked out from the molar mass of the structure shown.

target: T1, Matrix protein 2 (Influenza A virus, UniProt P06821); type: cell-based, Oocyte; conditions: not given
T1 sequence (P06821 whole entry): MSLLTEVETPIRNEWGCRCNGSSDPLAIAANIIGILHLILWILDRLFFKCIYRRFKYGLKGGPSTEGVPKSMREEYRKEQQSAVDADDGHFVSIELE

First: C[Si]1(C)CCC(CN)CC1
Second: C[Si]1(C)CCC(N)CC1
The IC50 of the first is 2.2-fold higher: 5.7 µM for the first, 2.6 µM for the second. The second is the more potent here.

First: NC1CC[Si]2(CCCCC2)CC1
Second: NC1CC[Si]2(CCCC2)CC1
The IC50 of the first is 1.8-fold higher: 13.7 µM for the first, 7.8 µM for the second. The second is the more potent here.

`C[Si]1(C)CCCNCC1` and `CC1(C)CCCNCC1` are within 1.5-fold of each other in IC50: 19.4 µM for the first, 26.1 µM for the second.

First: NC1CCC2(CCCC2)CC1 [listing 1 of 2 here]
Second: NC1CCC2(CCCCC2)CC1 [listing 1 of 2 here]
The IC50 of the first is 3.8-fold lower: 3.3 µM for the first, 12.6 µM for the second.

With `CC1(C)CCC(N)CC1` the IC50 was 2.4 µM.

test system: Influenza A virus; type: functional, organism-based; conditions: H1N1 (A/California/7/2009), MDCK, 72 h

Work on `CC[C@@H](C(=O)[C@@H](C)[C@@H](O)[C@H](C)[C@@H]1O[C@@H]([C@@H](CC)C(=O)O)CC[C@@H]1C)[C@H]1O[C@]2(C=C[C@@H](O)[C@]3(CC[C@@](C)([C@H]4CC[C@](O)(CC)[C@H](C)O4)O3)O2)[C@H](C)C[C@@H]1C` [SALINOMYCIN] yielded an EC50 of 1.9 µM.

target: T1, Matrix protein 2; type: cell-based, A/Udorn/72, Oocyte; conditions: not given; remark: another data set of the same source

`NCC1CCC2(CCCCC2)CC1` and `NC1CCC2(CCCCC2)CC1` [listing 2 of 2 here] are within 1.5-fold of each other in IC50: 8.9 µM for the first, 12.6 µM for the second.

Compared with `C1CCC2(CC1)CCNCC2`, `NC1CCC2(CCCCCC2)CC1` is 14-fold higher in IC50: 0.9 µM for the first, 13 µM for the second. The first is the more potent here.

Compared with `NC1CCC2(CCCC2)CC1` [listing 2 of 2 here], `NC1CCCC2(CCCCC2)CC1` (centres undefined) is 4-fold higher in IC50: 3.3 µM for the first, 13.2 µM for the second.

Going from `CC(N)C1CCC2(CCCCC2)CC1` (centres undefined) to `NC1CCCC2(CCCCCC2)CC1` (centres undefined), the IC50 falls from 16 µM to 8.7 µM (1.8-fold).

test system: not listed separately; assay: Cytotoxicity against MDCK cells measured after 3 days by MTT assay; type: toxicity, cell-based, Canis lupus familiaris; conditions: dog, time 3 day

Compound `CC[C@@H](C(=O)[C@@H](C)[C@@H](O)[C@H](C)[C@@H]1O[C@@H]([C@@H](CC)C(=O)O)CC[C@@H]1C)[C@H]1O[C@]2(C=C[C@@H](O)[C@]3(CC[C@@](C)([C@H]4CC[C@](O)(CC)[C@H](C)O4)O3)O2)[C@H](C)C[C@@H]1C` [SALINOMYCIN] has a CC50 at 72 h of 35.6 µM.

test system: Influenza A virus; type: functional, organism-based; conditions: H3N2 (A/Perth/10/2007), MDCK, 72 h

`CC[C@@H](C(=O)[C@@H](C)[C@@H](O)[C@H](C)[C@@H]1O[C@@H]([C@@H](CC)C(=O)O)CC[C@@H]1C)[C@H]1O[C@]2(C=C[C@@H](O)[C@]3(CC[C@@](C)([C@H]4CC[C@](O)(CC)[C@H](C)O4)O3)O2)[C@H](C)C[C@@H]1C` [SALINOMYCIN] showed an EC50 of 2.6 µM.

test system: Influenza A virus; type: functional, organism-based; conditions: A/WSN/33 (H1N1), MDCK, 48 h

Going from `c1nc(N2CCCCCC2)ncc1CNC12CC3CC(CC(C3)C1)C2` to `c1nc(N2CCCCC2)ncc1CNC12CC3CC(CC(C3)C1)C2`, the EC50 rises from 0.7 µM to 1.5 µM (2.1-fold).

`c1nc(N2CCCCCC2)cnc1CNC12CC3CC(CC(C3)C1)C2` and `OC12CC3CC(C1)CC(NCc1ccc(N4CCCCCC4)cn1)(C3)C2` are within 1.5-fold of each other in EC50: 1.9 µM for the first, 2.7 µM for the second.

Compared with `OC12CC3CC(C1)CC(NCc1cnc(N4CCCCC4)nc1)(C3)C2`, `OC12CC3CC(C1)CC(NCc1ccc(N4CCCCCCC4)cn1)(C3)C2` is 1.8-fold higher in EC50: 4.3 µM for the first, 7.9 µM for the second.

test system: not listed separately; assay: Cytotoxicity against MDCK cells; type: toxicity, cell-based, Canis lupus familiaris; conditions: dog

Work on `CC(NC(=O)c1csc(CN)n1)C12CC3CC(CC(C3)C1)C2` (centres undefined) yielded a CC50 of 50 µg/mL.

`O=C(CCC[C@@H]1[C@H]2CCCN3CCC[C@@H](CN1S(=O)(=O)c1cccc(C(F)(F)F)c1)[C@@H]23)OCC12CC3CC(CC(C3)C1)C2` showed a CC50 of 47.8 µM.

test system: Influenza A virus; type: functional, organism-based; conditions: H5N1 (A/chicken/Hubei/327/2004), MDCK

Compared with `[C-]#[N+]c1c(C)cc(C(C)(C)C)cc1C`, `[C-]#[N+]C(C)(C)CC(C)(C)C` is 16-fold higher in EC50: 0.24 µM for the first, 3.88 µM for the second.

Compared with `[C-]#[N+]C(C)C12CC3CC(CC(C3)C1)C2` (centres undefined), `[C-]#[N+]C12CC3CC(CC(C3)C1)C2` is 2-fold higher in EC50: 0.24 µM for the first, 0.487 µM for the second. The first is the more potent here.

`[C-]#[N+][C@@H]1C[C@@H]2C[C@H]([C@H]1C)C2(C)C` and `[C-]#[N+]C1C2CC3CC(C2)CC1C3` (centres undefined) are within 1.5-fold of each other in EC50: 7.36 µM for the first, 9.8 µM for the second.

test system: Influenza A virus; type: functional, organism-based; conditions: H1N1 (A/Hongkong/68), MDCK, 24 h

Work on `CC(NC(=O)c1csc(CN)n1)C12CC3CC(CC(C3)C1)C2` (centres undefined) yielded an IC50 of 0.11 µg/mL (≈ 0.344 µM).

test system: not listed separately; assay: Selectivity index, ratio of CC50 for MDCK cells to IC50 for influenza A virus A/hanfang/359/95 (H3N2); type: toxicity; conditions: dog, read-out: Ratio CC50/IC50

Work on `O=C(CCC[C@@H]1[C@H]2CCCN3CCC[C@@H](CN1S(=O)(=O)c1cccc(C(F)(F)F)c1)[C@@H]23)OCC12CC3CC(CC(C3)C1)C2` yielded a selectivity ratio of 9.31.

test system: Influenza A virus; type: functional, organism-based; conditions: A/WSN/33 (H1N1), MDCK, 48 h; remark: another data set of the same source

First: c1c(CNC23CC4CC(CC(C4)C2)C3)noc1C1CC1
Second: Brc1cc(CNC23CC4CC(CC(C4)C2)C3)cs1
The EC50 of the first is 4.5-fold lower: 0.49 µM for the first, 2.2 µM for the second.

test system: Influenza A virus; assay: Antiviral activity against influenza A virus A/hanfang/359/95 (H3N2); type: functional, organism-based; conditions: not given

`O=C(CCC[C@@H]1[C@H]2CCCN3CCC[C@@H](CN1S(=O)(=O)c1ccc(C(F)(F)F)cc1)[C@@H]23)OCC12CC3CC(CC(O)(C3)C1)C2` and `O=C(CCC[C@@H]1[C@H]2CCCN3CCC[C@@H](CN1S(=O)(=O)c1cccc(C(F)(F)F)c1)[C@@H]23)OCC12CC3CC(CC(O)(C3)C1)C2` are within 1.5-fold of each other in IC50: 9.53 µM for the first, 11.1 µM for the second.

`O=C(CCC[C@@H]1[C@H]2CCCN3CCC[C@@H](CN1S(=O)(=O)c1ccc(C(F)(F)F)cc1)[C@@H]23)OCCC12CC3CC(CC(C3)C1)C2` and `O=C(CCC[C@@H]1[C@H]2CCCN3CCC[C@@H](CN1S(=O)(=O)c1ccc(C(F)(F)F)cc1)[C@@H]23)OCC12CC3CC(CC(C3)C1)C2` are within 1.5-fold of each other in IC50: 16.9 µM for the first, 21.1 µM for the second.

Going from `O=C(CCC[C@@H]1[C@H]2CCCN3CCC[C@@H](CN1S(=O)(=O)c1cccc(C(F)(F)F)c1)[C@@H]23)OCC12CC3CC(CC(C3)C1)C2` to `O=C(CCC[C@@H]1[C@H]2CCCN3CCC[C@@H](CN1S(=O)(=O)c1ccccc1)[C@@H]23)OCC12CC3CC(CC(C3)C1)C2`, the IC50 rises from 5.14 µM to 16.3 µM (3.2-fold).

Work on `Cc1ccc(S(=O)(=O)N2C[C@@H]3CCCN4CCC[C@@H]([C@H]34)[C@H]2CCCC(=O)OCC23CC4CC(CC(C4)C2)C3)cc1` yielded an IC50 of 16.2 µM.

test system: not listed separately; assay: Cytotoxicity against MDCK cells incubated for 24 hrs by neutral red uptake assay; type: toxicity, cell-based, Canis lupus familiaris; conditions: dog

`NC1CCC2(CC1)C1CC3CC(C1)CC2C3` (centres undefined) showed a CC50 at 24 h of 27.6 µM.

test system: not listed separately; assay: Cytotoxicity against MDCK cells incubated for 72 hrs by CCK-8 assay; type: toxicity, cell-based, Canis lupus familiaris; conditions: dog

`CC(N)[C@H]1C[C@H]2CC[C@]1(C)C2(C)C` (some centres undefined) and `CC1(C)[C@@H]2CC[C@@]1(C)[C@@H](CN)C2` cannot be ordered by CC50 at 72 h: over 300 µM for the first, over 300 µM for the second.

Work on `C[C@H]1[C@H](N)C[C@@H]2C[C@H]1C2(C)C` yielded a CC50 at 72 h of over 300 µM.
